# In PubChem BioAssay AID743154 (The Scripps Research Institute Molecular Screening Center, 2013):
# pIC50: −log10 of the molar value. Activity calls are given as the source filed them. No rule for the calls is given here.
# Biological target: methionyl-tRNA synthetase (Trypanosoma brucei brucei)
# Experiment: T. brucei MetRS inhibitors, orthogonal readout, late-stage follow-up, orthogonal assay for T. brucei MetRS inhibitor project, biochemical, fluorescence polarization, dose response, round 1 (AID 743154)
IC50,pIC50,SMILES
> 119 µM (inactive),–,CCN(CC)C(=O)C(=O)c1cn(CC(=O)N2CCCc3ccccc32)c2ccccc12
> 39.5 µM (inactive),–,CC(=O)N(CCc1ccccc1)C1CC(=O)N(c2ccc(Cl)cc2)C1=O (stereo unspecified)
inactive,–,COc1ccccc1NC(=O)CSc1nnc2c(n1)[nH]c1ccc(C)cc12
–,6.17,COc1ccc(CCN(C(=S)Nc2ccccc2)C2CC(=O)N(c3ccc(Cl)cc3)C2=O)cc1 (stereo unspecified)
> 39.5 µM (inactive),–,Cc1cc2cc(C(=O)N3CCCC(c4nc5ccccc5[nH]4)C3)ccc2o1 (stereo unspecified)
> 13.2 µM (inactive),–,COc1cccc(NC(=O)C2CC(=O)n3c(nc4ccccc43)N2)c1 (stereo unspecified)
> 119 µM (inactive),–,O=C(Cn1cc(C(=O)C(=O)N2CCOCC2)c2ccccc21)NCC1CCCO1 (stereo unspecified)
> 39.5 µM (inactive),–,Cc1cccc(NC(=O)C2CC(=O)n3c(nc4ccccc43)N2)c1 (stereo unspecified)
> 39.5 µM (inactive),–,CCCCn1c(CCNC(=O)c2ccc(F)cc2)nc2ccccc21
> 39.5 µM (inactive),–,Cc1cccc(C(=O)NCCc2nc3ccccc3n2CCOc2ccccc2)c1
> 119 µM (inactive),–,CC(C)c1nc2ccc(C(=O)N(C)CCc3nc4ccc(F)cc4[nH]3)cc2o1
–,5.27,O=C(NCCc1nc2ccccc2[nH]1)c1ccc(Cl)cc1
> 13.2 µM (inactive),–,Cc1ccc(C(=O)NCCc2nc3ccccc3[nH]2)cc1C
> 119 µM (inactive),–,O=C(Cn1cc(C(=O)C(=O)N2CCOCC2)c2ccccc21)NCc1ccccc1
–,5.45,Cc1ccc(C(=O)NCCc2nc3ccccc3[nH]2)cc1[N+](=O)[O-]
> 39.5 µM (inactive),–,CCN(CC)C(=O)C(=O)c1cn(CC(=O)N(CC)c2ccccc2)c2ccccc12
> 119 µM (inactive),–,CCN(CC)C(=O)C(=O)c1cn(CC(=O)Nc2ccccc2OC)c2ccccc12
> 119 µM (inactive),–,CCN(CCc1nc2ccc(C)cc2[nH]1)C(=O)c1ccc2ncccc2c1
> 119 µM (inactive),–,COc1ccc(NC(=O)CSc2nnc3c4cc(C)ccc4n(C)c3n2)cc1
> 119 µM (inactive),–,CCc1ccc2c(c1)c1nnc(SCC(=O)Nc3ccc4c(c3)OCO4)nc1n2C
inactive,–,Cc1ccc(CNC(=O)CSc2nnc3c(n2)[nH]c2ccc(C)cc23)cc1
–,6.18,O=C(CSc1nnc2c(n1)[nH]c1ccc(Br)cc12)NCc1ccccc1
> 119 µM (inactive),–,O=C(Cn1cc(C(=O)C(=O)N2CCCC2)c2ccccc21)Nc1ccccc1
inactive,–,O=C(CSC1CC(=O)N(c2cccc(Cl)c2)C1=O)Nc1ccc(Br)cc1 (stereo unspecified)
> 119 µM (inactive),–,Cc1ccc2[nH]c3nc(SCC(=O)Nc4ccc(C(F)(F)F)cc4)nnc3c2c1
> 39.5 µM (inactive),–,O=C(Cn1cc(C(=O)COc2ccccc2)c2ccccc21)Nc1cccc(C(F)(F)F)c1

IC50,pIC50,SMILES
> 39.5 µM (inactive),–,CCc1ccc2[nH]c3nc(SCC(=O)NCc4cccc(OC)c4)nnc3c2c1
> 39.5 µM (inactive),–,Cc1cccc2[nH]c(C3CCCN(C(=O)c4cccc5cccnc45)C3)nc12 (stereo unspecified)
–,6.78,CCN(CC)C(=O)C(=O)c1cn(CC(=O)Nc2cccc(C(F)(F)F)c2)c2ccccc12
> 119 µM (inactive),–,CC1Cc2ccccc2N1C(=O)Cn1cc(C(=O)C(=O)N2CCOCC2)c2ccccc21 (stereo unspecified)
> 39.5 µM (inactive),–,COCCc1nc2ccc(C(=O)NCCc3nc4ccc(OC)cc4[nH]3)cc2o1
inactive,–,O=C(Cn1cc(C(=O)c2ccccc2)c2ccccc21)Nc1cccc(C(F)(F)F)c1
> 39.5 µM (inactive),–,CC(=O)c1cn(CC(=O)Nc2cccc(C(F)(F)F)c2)c2ccccc12
–,6.05,O=C(NCCc1nc2ccccc2[nH]1)c1ccc(Cl)c(Cl)c1
> 39.5 µM (inactive),–,O=C(Cn1cc(C(=O)C2CC2)c2ccccc21)Nc1cccc(C(F)(F)F)c1
> 39.5 µM (inactive),–,CCC(=O)c1cn(CC(=O)Nc2cccc(C(F)(F)F)c2)c2ccccc12
> 119 µM (inactive),–,CCN(C(=O)Cn1cc(C(=O)C(=O)N2CCOCC2)c2ccccc21)c1ccccc1
> 119 µM (inactive),–,COc1ccccc1NC(=O)Cn1cc(C(=O)C(=O)N2CCOCC2)c2ccccc21
> 13.2 µM (inactive),–,O=C(C(=O)N1CCOCC1)c1cn(CC(=O)N2CCCc3ccccc32)c2ccccc12
> 39.5 µM (inactive),–,CC(=O)N(CCc1ccccc1)C1CC(=O)N(c2ccc(Br)cc2)C1=O (stereo unspecified)
–,5.53,O=C(Cn1cc(C(=O)c2ccco2)c2ccccc21)Nc1cccc(C(F)(F)F)c1
> 119 µM (inactive),–,O=C1CC(NCCc2ccccc2)C(=O)N1c1ccc(Br)cc1 (stereo unspecified)
> 119 µM (inactive),–,COc1ccc(CCN(C(=O)c2cccc(F)c2)C2CC(=O)N(c3ccc(Br)cc3)C2=O)cc1 (stereo unspecified)
–,6.49,CNC(=S)N(CCc1ccccc1)C1CC(=O)N(c2ccc(Br)cc2)C1=O (stereo unspecified)
–,5.75,O=C(Nc1ccc(F)c(Cl)c1)C1CC(=O)n2c(nc3ccccc32)N1 (stereo unspecified)
–,5.46,CCN(CC)C(=O)C(=O)c1cn(CC(=O)Nc2cccc(OC)c2)c2ccccc12
> 119 µM (inactive),–,Cc1cccc2[nH]c(CCN(C)C(=O)c3cccc(C4CCNC4)c3)nc12 (stereo unspecified)
–,5.87,O=C(NCCc1nc2ccccc2[nH]1)c1ccc(Cl)cc1Cl
> 119 µM (inactive),–,COc1ccc(NC(=O)C2CC(=O)n3c(nc4ccccc43)N2)cc1 (stereo unspecified)
> 39.5 µM (inactive),–,Cn1c(CCNC(=O)c2ccc(Cl)cc2)nc2ccccc21
> 119 µM (inactive),–,O=C(NCCc1nc2ccccc2[nH]1)c1c(F)cccc1F
